Values after ≈ are worked out from the molar mass of the structure shown.
What was measured:
Escherichia coli [1] = assay: Antibacterial activity against wild type Escherichia coli MG1655 harboring delta tolC mutant assessed as inhibition of bacterial growth by MOPS based broth microdilution assay; type: functional
Salmonella typhimurium [2] = assay: Antibacterial activity against wild type Salmonella typhimurium SL1344 assessed as reduction in bacterial growth by ALM based microdilution assay; type: functional, Salmonella enterica subsp. enterica serovar Typhimurium; conditions: Salmonella enterica
Salmonella typhimurium [3] = assay: Antibacterial activity against Salmonella typhimurium harboring delta tolC mutant assessed as bacterial growth inhibition by Muller hinton broth based microdilution assay; type: functional, Salmonella enterica subsp. enterica serovar Typhimurium; conditions: Salmonella enterica
Escherichia coli [4] = assay: Antibacterial activity against wild type Escherichia coli MG1655 harboring delta tolC mutant assessed as inhibition of bacterial growth by Muller hinton broth based microdilution assay; type: functional
Salmonella typhimurium [5] = assay: Antibacterial activity against wild type Salmonella typhimurium SL1344 assessed as reduction in bacterial growth by Muller hinton broth based microdilution assay; type: functional, Salmonella enterica subsp. enterica serovar Typhimurium; conditions: Salmonella enterica
Escherichia coli [6] = assay: Antibacterial activity against wild type Escherichia coli MG1655 assessed as inhibition of bacterial growth by Muller hinton broth based microdilution assay; type: functional
Bacillus subtilis = assay: Antibacterial activity against Bacillus subtilis 168 assessed as inhibition of bacterial growth by Muller hinton broth based microdilution assay; type: functional
Escherichia coli [7] = assay: Antibacterial activity against wild type Escherichia coli MG1655 assessed as inhibition of bacterial growth by MOPS based broth microdilution assay; type: functional
Staphylococcus aureus = assay: Antibacterial activity against Methicillin-resistant Staphylococcus aureus USA300 assessed as inhibition of bacterial growth by Muller hinton broth based microdilution assay; type: functional

For `CN1C=C2C[C@@H]3[C@H](C[C@@H](CNC(=O)C4CC4c4ccccc4)CN3C)C3C=CC=C1C23` (some centres not stated), the MIC (Escherichia coli [1]) was 10.2 µg/mL (≈ 24.6 µM), the MIC (Salmonella typhimurium [2]) was 200 µg/mL (≈ 481 µM) and the MIC (Salmonella typhimurium [3]) was 64 µg/mL (≈ 154 µM). The MIC (Escherichia coli [4]) was 64 µg/mL (≈ 154 µM), the MIC (Salmonella typhimurium [5]) was greater than 200 µg/mL and the MIC (Escherichia coli [6]) was greater than 200 µg/mL. For the same molecule, the MIC (Bacillus subtilis) was 64 µg/mL (≈ 154 µM), the MIC (Escherichia coli [7]) was greater than 200 µg/mL and the MIC (Staphylococcus aureus) was 64 µg/mL (≈ 154 µM).
For `CN(C)CCCNC(=O)/C=C/c1ccc(C(F)(F)F)cc1`, the MIC (Escherichia coli [1]) was 128 µg/mL (≈ 426 µM), the MIC (Salmonella typhimurium [2]) was greater than 200 µg/mL and the MIC (Salmonella typhimurium [3]) was greater than 200 µg/mL. The MIC (Salmonella typhimurium [5]) was greater than 200 µg/mL, the MIC (Escherichia coli [6]) was greater than 200 µg/mL and the MIC (Bacillus subtilis) was greater than 200 µg/mL. It also gave an MIC (Escherichia coli [7]) greater than 200 µg/mL and an MIC (Staphylococcus aureus) greater than 200 µg/mL.
